Source: the METLIN SMRT retention time set (Domingo-Almenara et al. 2019)

Experiment: gradient 5% acetonitrile 3 min, to 50% in 2 min, to 85% in 15 min, held 3 min, 100 µL/min
Conditions: column: Zorbax Extend-C18 2.1 x 50 mm; eluents: water / acetonitrile, 0.1% formic acid
Procedure, shortened: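 In both positive and negative ionization mode, a quadrupole time-of-flight mass spectrometer coupled to HPLC analyzed pure standards run in mixtures of ~100 molecules. The Zorbax Extend-C18 column (2.1 × 50 mm, 1.8 μm) was operated at 100 μL/min with water and acetonitrile, each containing 0.1% formic acid. The dead volume was 40 μL and the dwell volume 900 μL. Retention time came from adduct peaks that were computationally picked and individually inspected by hand.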

Row | Structure (SMILES) | RP-LC retention time
1 | CN(CCCNC(=O)c1ccc2c(c1)NC(=O)C1CCCCN21)C1CCCCC1 (stereo not given) | 623 s
2 | COCc1cc(=O)n(CC(=O)Nc2c(C)cccc2C)c(N)n1 | 604 s
3 | N#Cc1cccc(NC(=O)Cn2cccc(-c3nc(-c4ccccc4)no3)c2=O)c1 | 828 s
4 | Cc1nc(C)c(C(=O)N2CCC(CC(=O)N3CCOCC3)C2)s1 (stereo not given) | 684 s
5 | CCC(C)N(CCNC(=O)c1cc(C)nn1-c1ccccc1)C1CCCCC1 (stereo not given) | 684 s
6 | COc1ccc(NC(=O)N2CCN(c3cc(-c4ccc(OC)c(OC)c4)ncn3)CC2)c(OC)c1 | 660 s
7 | O=C(Nc1cccnc1N1CCOCC1)C1CCC1 | 623 s
8 | Cc1cc(C(=O)N2CCCCC2c2nncn2-c2ccccc2)nn1C (stereo not given) | 647 s
9 | CC(C)CNC(=O)C(=O)NCc1ccccn1 | 552 s
10 | Cc1ccc(CNC(=O)CCc2c(-c3ccc(Br)cc3)nc3ccccn23)cc1 | 709 s
11 | O=C(NCCCN1CCCC1=O)c1c(OCC2CC2)cc(=O)n2c1CCCCC2 | 602 s
12 | Cc1cc(C)cc(NS(=O)(=O)c2cc(-c3[nH]ncc3C(=O)N3CCOCC3)oc2C)c1 | 731 s
13 | Cc1ccc(NC(=O)C(=O)NCC(c2ccc3c(c2)OCO3)N2CCOCC2)c(C)c1 (stereo not given) | 693 s
14 | Cc1cc(S(=O)(=O)NCC2(C)CCOCC2)ccc1F | 840 s
15 | CCc1noc(NC(C)=O)c1-c1ccc(OC)c(S(=O)(=O)NC2CCCC2)c1 | 801 s
16 | CC(=O)N1CCN(S(=O)(=O)c2cc3c4c(c2)CCC(=O)N4CCC3)CC1 | 647 s
17 | Cc1cc(-c2c(C)sc(C)c2S(=O)(=O)Nc2ccc(C)c(F)c2)n[nH]1 | 1080 s
18 | CCCc1nc(-c2c(C)cc(C)nc2NC(=O)c2ccc(C)cc2)no1 | 893 s
19 | CCCCOc1ccc(NC(N)=Nc2ccc(Cl)cc2)cc1 | 778 s
20 | CC(C)CNC(=O)CCc1nc2ccccc2n(CC(=O)NCc2ccccc2Cl)c1=O | 822 s
21 | CCOC(=O)c1ccc(NC(=O)CC2COc3ccccc3NC2=O)cc1 (stereo not given) | 596 s

Row | Structure (SMILES) | RP-LC retention time
22 | Cc1cc(C2CCCN2C(=O)Nc2ccc(C)c(Cl)c2)on1 (stereo not given) | 893 s
23 | COc1ccc(C)cc1NC(=O)CN1C(=O)NC2(CCC(C)CC2)C1=O (stereo not given) | 853 s
24 | COc1cccc(NC(=O)Nc2nccn(-c3ccc(Br)cc3)c2=O)c1 | 983 s
25 | O=C(NCCN1CCCc2ccccc21)C1CCCN(c2ncnc3c2nc2n3CCCCC2)C1 (stereo not given) | 877 s
26 | COc1ccc(C(=O)Nc2nc(-c3ccc4c(c3)NC(=O)CO4)cs2)cc1OC | 801 s
27 | O=C(COc1ccc(Cl)cc1Cl)Nc1c(-c2ccccc2)nc2ccccn12 | 738 s
28 | CCOC(=O)C1CCCN(S(=O)(=O)c2ccc(Cl)c(-c3nnc(-c4ccccc4)o3)c2)C1 (stereo not given) | 1120 s
29 | Cc1nn(CC(=O)N2CCCCCC2)c(=O)c2nc(-c3ccccc3)sc12 | 872 s
30 | CCOC(=O)N1CCC(NC(=O)C2CCCN(Cc3nc(-c4cccnc4)no3)C2)CC1 (stereo not given) | 559 s
31 | CS(=O)(=O)N1CCc2ccc(C(=O)N3CCCCC3)cc21 | 717 s
32 | Cc1ccc(S(=O)(=O)NCCc2cn(CC(C)C)c3ncccc23)cc1Cl | 1070 s
33 | CCOC(=O)N1CCN(S(=O)(=O)c2cn(C)c(=O)n(C)c2=O)CC1 | 621 s
34 | COc1ccc(N2C=C(C#N)S(=O)(=O)c3ccc(C)cc32)c(OC)c1 | 930 s
35 | CCN(Cc1ccccc1)C(=O)CN1C(=O)N(c2cc(C)cc(C)c2)C2CS(=O)(=O)CC21 (stereo not given) | 893 s
36 | CC(=O)Oc1ccc(C(=O)N2CCCc3ccccc32)cc1 | 904 s
37 | CCNC(=O)CCc1nc2ccccc2n(CC(=O)Nc2ccc(OC)c(OC)c2)c1=O | 658 s
38 | CCc1ccccc1S(=O)(=O)N1CCC(C(=O)NCCc2csc(-c3cccs3)n2)CC1 | 981 s
39 | COc1ccc(C(O)CN2CCN(c3cccc(C)c3)CC2)cc1OC (stereo not given) | 653 s
40 | CC(C)c1cccc(Nc2nc3ccncc3n(Cc3ccccc3)c2=O)c1 | 911 s
41 | CCOc1ccc(S(=O)(=O)N2CCC(c3noc(-c4ccc(Cl)cc4)n3)CC2)cc1 | 1260 s
42 | CN1C(=O)CC[C@]2(C(=O)NCc3ccc(F)c(Cl)c3)CCCC[C@@H]12 | 718 s

Row | Structure (SMILES) | RP-LC retention time
43 | CC(=O)c1cccc(NC(=O)COc2ccc(C(C)(C)C)cc2)c1 | 1010 s
44 | Cc1cccc(NS(=O)(=O)c2cc3c(=O)n(C)ncn3c2)c1 | 797 s
45 | CC(C)N1CCN(C(=O)CC2Sc3ncccc3N(C)C2=O)CC1 (stereo not given) | 570 s
46 | COc1ccc(Cn2nc3c(S(=O)(=O)N4CCCC4)cccn3c2=O)cc1 | 804 s
47 | O=C(CC1CCN(C(=O)Nc2ccc(Br)cc2)CC1)N1CCCCC1 | 830 s
48 | O=C(Cc1ccccc1Cl)Nc1cc(N2CCOCC2)ncn1 | 635 s
49 | COc1ccc2nc(C(=O)NCc3cccc(F)c3)cn2n1 | 778 s
50 | CCC(=O)Nc1ccc(CCc2nc3ccc(C(=O)NC4CCCCCC4)cc3[nH]2)cc1 | 671 s
51 | COc1ccc(C2Cn3cnc(C(=O)N4CCC(C(=O)NC5CC5)CC4)c3CO2)cc1 (stereo not given) | 648 s
52 | CC(C)c1ccc(N2C=C(C#N)S(=O)(=O)c3ccccc32)cc1 | 1040 s
53 | CC(C)(C)CC(=O)N1CC2CN(S(=O)(=O)c3cccc(F)c3)CC(C1)O2 | 834 s
54 | COc1ccccc1-c1nnc(Nc2nc3ccc(SC)cc3s2)o1 | 830 s
55 | Cc1noc(-c2ccnc(-n3cnc(C(=O)NC(C)c4ccc(F)cc4)c3)c2)n1 (stereo not given) | 885 s
56 | CCCn1c(=O)c(C)nc2cc(-c3noc(-c4ccsc4)n3)ccc21 | 1080 s
57 | CN(C)C(=O)CCc1ccc2c(c1)CN(C(=O)CC1CCCC1)CCO2 | 781 s
58 | CCCc1ccc(-c2cc(C(=O)N3CCN(c4ncccn4)CC3)c3ccccc3n2)cc1 | 1180 s
59 | CCC[C@H](Nc1nc(-c2ccc(NC(=O)NCC)c(OC)c2)ncc1C)c1cccnc1 | 666 s
60 | CCC(C)NC(=O)C1c2ccccc2CC(=O)N1C (stereo not given) | 658 s
61 | O=C1COc2cc(S(=O)(=O)N3CCCC3C(=O)NCc3ccc4c(c3)OCO4)c(Cl)cc2N1 (stereo not given) | 725 s
62 | CCn1c(=O)n(CC)c2cc(N3CCCC3)c(NC(=O)NCc3cccc(OC)c3)cc21 | 646 s
63 | CCc1noc(NC(C)=O)c1-c1ccc(C)c(S(=O)(=O)NCc2ccccc2)c1 | 836 s

Next, values leading:

Row | RP-LC retention time | Structure (SMILES)
64 | 877 s | c1ccc(-n2ncc3c(NCc4ccc5c(c4)OCO5)ncnc32)cc1
65 | 761 s | Cn1cnc(S(=O)(=O)N2CCC(c3noc(COCc4ccccc4)n3)C2)c1 (stereo not given)
66 | 765 s | O=C(NC1CCCCC1)C1CCN(S(=O)(=O)c2cc(C(=O)N3CCCC3)cs2)CC1
67 | 682 s | CCOc1ccccc1NC(=O)C1CN(S(C)(=O)=O)CC12CCCCC2 (stereo not given)
68 | 1000 s | CCCNc1nc(-c2nnc(-c3cccc(C)c3)o2)nc2ccccc12
69 | 1100 s | Cc1oc2ccn(Cc3ccc(F)cc3)c(=O)c2c1C(=O)NCc1ccc(F)cc1F
70 | 976 s | Cc1cc(C(=O)Nc2nc(-c3ccc(F)cc3)c(C)s2)no1
71 | 599 s | CCOC(=O)c1c(C)[nH]c(C)c1S(=O)(=O)NCC(=O)N1CCN(c2ccccn2)CC1
72 | 616 s | Cn1cc(-c2cc3n(n2)CCC(=O)N3CCCC(=O)NCc2cccnc2)c2ccccc21
73 | 891 s | O=C(NC1CCCCC1)C1CCc2sc(C(=O)N3CCCCC3)cc2C1 (stereo not given)
74 | 1210 s | Cc1c(Cl)cccc1S(=O)(=O)N1CCc2nc(-c3ccccc3)ncc2C1
75 | 824 s | CCCNC(=O)CN1c2ccc(F)cc2-c2ccccc2S1(=O)=O
76 | 1030 s | CC(C)CCN1C(=O)CN(S(=O)(=O)c2ccccc2)CC1(C)C(=O)NCc1ccc(F)cc1 (stereo not given)
77 | 957 s | CCc1ccccc1NC(=O)N1CCCC1c1nc(-c2cccc(OC)c2)no1 (stereo not given)
78 | 898 s | COc1ccc(-c2nnc(-c3cccc([N+](=O)[O-])c3)o2)cc1
79 | 576 s | CCn1ncc(N2CCC(NC(=O)C(C)(C)C)CC2)cc1=O
80 | 587 s | CCCN1CCN(Cc2nc3nc(C)cc(N4CCCCCC4)n3n2)CC1
81 | 816 s | O=C(Cn1nc(N2CCOCC2)c2ccccc2c1=O)Nc1ccc(F)cc1Cl
82 | 838 s | COCc1cc2nn(CC(=O)Nc3ccc(C)cc3)c(=O)n2c(-c2ccccc2)n1
83 | 617 s | CN(CCCNC(=O)c1ccc2c(c1)NC(=O)C1CCCCN21)Cc1ccccc1 (stereo not given)
84 | 626 s | CC(NC(=O)CCCc1ccccc1)C(=O)N1CCN(c2ccccn2)CC1 (stereo not given)
85 | 877 s | CCc1cccc(NC(=O)C2CCCN(S(=O)(=O)c3c[nH]c(C(=O)N4CCCC4)c3)C2)c1 (stereo not given)
86 | 952 s | Cc1ccc(C)c(N2CCN(c3ccnc(SCC(=O)NCc4ccccc4Cl)n3)CC2)c1
87 | 616 s | CCOC(=O)c1[nH]c(C)c(CCC(=O)NCCN2CCCCCC2)c1C
88 | 681 s | O=C(Cc1nnc(-c2cnccn2)o1)Nc1ccccc1Cl
89 | 614 s | Cc1cccc2c(C(=O)NC(C)C)cc(N(C)C)nc12
90 | 888 s | CCCN1CCN(c2cc(C(=O)O)c3cc(NC(=O)c4ccc(F)cc4)ccc3n2)CC1
